# Reference: US20240226042A9, “A PROPYL PROPANE THI[…] FOR USE AS ANTITUMORAL” (DMC RESEARCH CENTER, SL, priority 2021, published 2024)
# Experiments:
# [1] = test system: Jurkat (human tumor T lymphocytes line)
# Protocol: (§1) Adherent cells were incubated for 24 hours to get cells attached to the surface of the flask. Then, the culture medium was replaced for a new medium, to which increasing concentrations of PTSO had been added, and the induction was conducted for 72 hours.
# [2] = test system: normal human peripheral blood mononuclear cells (PBMCs); details: normal PBMCs from healthy volunteers, 72 hours induction, MTT; means±SEM of six independent determinations
# Protocol: as §1
# [3] = test system: A-549 (human lung adenocarcinoma line); details: A-549 cells, 72 hours induction, SRB; means±SEM of six independent determinations
# From the text: (§2) A-549 (Reference CCL-185 of the American Type Culture Collection): It is a tumor line of basal alveolar epithelium that comes from a pulmonary adenocarcinoma removed from a patient. These cells are squamous and can synthesize lecithin. T-84 (Reference CCL-248 of the American Type Culture Collection): It is a tumor line with epithelial morphology, isolated from a pulmonary metastasis of a colorectal carcinoma of a patient. These cells present receptors for a large group of hormones and neurotransmitters, and they produce carcinoembryonic antigen (CEA) and keratin, among other cellular products.
# (§3) Adherent cells (MCF-7, A-549, T-84, HT-29 and Panc-1), were detached from the surface of the culture flasks, using 3-4 ml of trypsin 1×, and left to act for 5-10 minutes in an incubator at 37° C. with 5% CO2. Once the cells were detached, the trypsinization was stopped, adding to the medium flask the same amount of complete culture as trypsin used to detach cells. After resuspending the mixture of trypsin and detached cells several times, the content of the culture flask was transferred to a sterile tube to centrifugation it for 5 minutes at 1500-1600 rpm.
# (§4) Adherent cells were incubated for 24 hours to get cells attached to the surface of the flask. […]
# [4] = test system: T-84 (human colorectal adenocarcinoma line); details: T-84 cells, 72 hours induction, SRB; means±SEM of six independent determinations
# From the text: as §2, §3, §4
# [5] = test system: Panc-1 (human pancreatic carcinoma line); details: Panc-1 cells, 72 hours induction, SRB; means±SEM of six independent determinations
# Protocol: as §3, §1
# [6] = test system: MCF-7 (human breast adenocarcinoma line)
# Protocol: as §3, §1
# [7] = test system: HT-29 (human colorectal carcinoma line); details: HT-29 cells, 72 hours induction, SRB; means±SEM of six independent determinations
# Protocol: as §3, §1
# rats = details: OECD guideline 408, 90-days oral subchronic toxicity study; cited from earlier work
smiles,measurement,setting,value
"CCCSS(=O)(=O)CCC [PTSO, propyl propane thiosulfonate]",in vitro T.I (IC50 Normal Line/IC50 Tumor Line),[1]; IC50 PBMCs / IC50 Jurkat tumor line,15.8
same,IC50,"[1]; Jurkat cells, 72 hours induction, MTT, means±SEM of six independent determinations",15.7 µM
same,IC50,[2],248 µM
same,IC50,[3],38.6 µM
same,IC50,[4],37.3 µM
same,IC50,[5],33.8 µM
same,in vitro T.I (IC50 Normal Line/IC50 Tumor Line),[6]; IC50 PBMCs / IC50 MCF-7 tumor line,36.0
same,IC50,"[6]; MCF-7 cells, 72 hours induction, SRB, means±SEM of six independent determinations",6.9 µM
same,IC50,[7],50.8 µM
same,no-observed-adverse-effect level (NOAEL),rats,55 mg/kg/day
